Laboratory results from publication PMC6015718, “Effect of Polyvalence on the Antibacterial Activity of a Synthetic Peptide Derived from Bovine Lactoferricin against Healthcare-Associated Infectious Pathogens” (BioMed Research International, 2018).
“And” between values parts separate entries of the source, which are not always exact repeats. Equal entries are not always repeated. Where two headings read alike, the source gives them in different places. Positions of bridges follow the written chain, without caps; N, C: chain ends. Non-standard residues stand in square brackets, D forms with d. Residues, ends and D or L forms follow the SMILES beside them. Chains are numbered I, II in the order given. Ahx = NCCCCCC(=O)O

Assays:
Type in all cases: cell-based
[1] = test system: Klebsiella pneumoniae ATCC 13883 (sensitive)
Description: (§1) All microorganisms were purchased from the American Type Culture Collection (ATCC). To determine the antibacterial activity of synthetic peptides against HCAI bacteria, the Staphylococcus aureus strains ATCC 25923 and ATCC 33591 were employed as sensitive and resistant strains, respectively, of a Gram-positive microorganisms species, and Klebsiella pneumoniae ATCC 13883 and ATCC 700603 as sensitive and resistant strains of a Gram-negative species.
(§2) To determine the MBC, an aliquot from each well of the MIC assay was spread onto MHA. After 18 h at 37°C, the concentration that inhibited bacterial growth was determined. Each of these tests was performed four times. MBC was defined as the lowest concentration of peptide that reduced the number of bacteria by 99.9% in vitro [12].

[2] = test system: Klebsiella pneumoniae ATCC 700603 (resistant)
Description: as §1, §2

[3] = test system: Staphylococcus aureus ATCC 33591 (resistant)
Description: as §1, §2

[4] = test system: Staphylococcus aureus ATCC 25923 (sensitive)
Description: as §1, §2

human erythrocytes = test: Haemolytic activity; conditions: 6.25-100 μM peptide; human erythrocytes 2% haematocrit in PBS, 2 h 37°C, OD492; n = 2
Protocol: Human erythrocytes collected from the blood samples of healthy humans were harvested by centrifugation for 7 min at 162 ×g and washed three times in phosphate-buffered saline (PBS). The erythrocytes (2% haematocrit in PBS) were incubated with peptide molecules at several concentrations (6.25, 12.5, 25, 50, and 100 μM), for 2 h at 37°C. PBS was used as a negative control, and sterile distilled water was used as a positive control for haemolysis (100% of haemolysis). The plate was subsequently centrifuged at 1459 ×g for 10 min at 4°C. Aliquots of the supernatants of each well (75 μL) were carefully transferred to a new sterile 96-well plate, and haemolytic activity was evaluated by measuring the OD492 using an Asys Expert Plus Microplate reader. The experiments were performed in duplicate, and peptide haemolysis activity was calculated.
Lastly, to evaluate the effects of the peptides on normal human erythrocytes, their haemolysis activity was investigated (Figure 6). The percentage of haemolytic activity on human red blood cells after 2 hours was determined via the standard microtitre dilution method. The peptide concentration is reported as μM.

[5] = test system: Klebsiella pneumoniae ATCC 13883 (sensitive); remark: listed apart in the source
Description: as §1
(§3) The antibacterial activity assay for peptides and controls was performed according to the National Committee for Clinical Laboratory Standards method M7-A7 [11]. MIC and MBC values were determined using a broth microdilution and growth inhibition method with some modification. Briefly, MIC assays were performed by liquid inhibition growth assay in an untreated sterile 96-well flat-bottom tissue culture plate. Bacteria were cultured overnight on Mueller-Hinton agar (MHA). Three colonies were transferred to 8 mL of Mueller-Hinton broth (MHB) and incubated at 37°C until the mid-exponential phase of growth. The turbidity of the cultures was measured and adjusted spectrophotometrically to McFarland standard 0.5, then diluted to a final concentration of […]. Synthetic antibacterial peptide candidate stock solutions were diluted to final concentrations per well of 200, 100, 50, 25, 12.5, and 6.25 μM. […]
(§4) Wells containing MHB with bacterial inoculum only served as bacterial growth controls. Additional controls included MHB alone and MHB with ciprofloxacin (CIP) (2 μg/mL) and bacteria as a positive control. The microplate was incubated for 24 h at 37°C, and growth inhibition was examined by monitoring the optical density at 620 nm (OD620). MIC was defined as the lowest peptide concentration that inhibited bacteria growth >90%.

[6] = test system: Klebsiella pneumoniae ATCC 700603 (resistant); remark: listed apart in the source
Description: as §1, §3, §4

[7] = test system: Staphylococcus aureus ATCC 33591 (resistant); remark: listed apart in the source
Description: as §1, §3, §4

[8] = test system: Staphylococcus aureus ATCC 25923 (sensitive); remark: listed apart in the source
Description: as §1, §3, §4

N=C(N)NCCC[C@H](NC(=O)[C@H](Cc1c[nH]c2ccccc12)NC(=O)[C@H](CCC(N)=O)NC(=O)[C@H](Cc1c[nH]c2ccccc12)NC(=O)[C@H](CCCNC(=N)N)NC(=O)[C@@H](N)CCCNC(=N)N)C(=O)NCCCC[C@H](NC(=O)[C@H](CCCNC(=N)N)NC(=O)[C@H](Cc1c[nH]c2ccccc12)NC(=O)[C@H](CCC(N)=O)NC(=O)[C@H](Cc1c[nH]c2ccccc12)NC(=O)[C@H](CCCNC(=N)N)NC(=O)[C@@H](N)CCCNC(=N)N)C(=O)NCCCCCC(N)=O [Dimeric] (I: H-RRWQWRK[Ahx]-NH2 / II: H-RRWQWR; amide I:7-II:C; N-terminus assumed)
MBC ([1]; ATCC 13883, 18 h): 25 µM | MBC ([1]; K. pneumoniae ATCC 13883 sensitive, MHA, 18 h 37°C, 99.9% reduction): 55 µg/mL | MBC as a function of the MBC of the tetrameric peptide ([1]; K. pneumoniae sensitive strain, from concentrations in μg/mL): 0.5 x MBC | MBC ([2]; ATCC 700603, 18 h): 100 µM | MBC ([2]; K. pneumoniae ATCC 700603 resistant, MHA, 18 h 37°C, 99.9% reduction): 220 µg/mL | MBC as a function of the MBC of the tetrameric peptide ([2]; K. pneumoniae resistant strain, from concentrations in μg/mL): 1.9 x MBC | MBC ([3]; ATCC 33591, 18 h): 50 µM | MBC ([3]; S. aureus ATCC 33591 resistant, MHA, 18 h 37°C, 99.9% reduction): 110 µg/mL | MBC ([3]; S. aureus ATCC 33591 resistant, MHA, 18 h 37°C, 99.9% reduction, listed as dimeric): ≥ 110 µg/mL | MBC ([3]; S. aureus ATCC 33591 resistant, value in parentheses, MHA, 18 h 37°C, 99.9% reduction): ≥ 50 µM | MBC as a function of the MBC of the tetrameric peptide ([3]; S. aureus resistant strain, from concentrations in μg/mL): 1.9 x MBC | MBC ([4]; ATCC 25923, 18 h): 50 µM | MBC ([4]; S. aureus ATCC 25923 sensitive, MHA, 18 h 37°C, 99.9% reduction, average of four independent experiments): 110 µg/mL | MBC ([4]; S. aureus ATCC 25923 sensitive, MHA, 18 h 37°C, 99.9% reduction, average of four independent experiments, listed as dimeric): ≥ 110 µg/mL | MBC ([4]; S. aureus ATCC 25923 sensitive, value in parentheses, MHA, 18 h 37°C, 99.9% reduction): ≥ 50 µM | MBC as a function of the MBC of the tetrameric peptide ([4]; S. aureus sensitive strain, from concentrations in μg/mL): 1.9 x MBC | haemolysis activity over the concentrations tested (human erythrocytes): < 5% | MIC ([5]; ATCC 13883, 24 h): 12.5 µM | MIC ([5]; K. pneumoniae ATCC 13883 sensitive, MHB, 24 h 37°C, OD620, >90% inhibition, average of four independent experiments in duplicate): 27 µg/mL | MIC ([5]; K. pneumoniae ATCC 13883 sensitive, MHB, 24 h 37°C, OD620, >90% inhibition, average of four independent experiments in duplicate, listed as dimeric): ≥ 27 µg/mL | MIC ([5]; K. pneumoniae ATCC 13883 sensitive, value in parentheses, MHB, 24 h 37°C, OD620, >90% inhibition): ≥ 12,5 µM | concentration at which antibacterial activity was exhibited (dose-response profile) ([5]; K. pneumoniae sensitive strain, Figure 3): ≤ 27 μg/mL and ≤ 12,5 μM | MIC ([6]; ATCC 700603, 24 h): 12.5 µM | MIC ([6]; K. pneumoniae ATCC 700603 resistant, MHB, 24 h 37°C, OD620, >90% inhibition, average of four independent experiments in duplicate): 27 µg/mL | MIC ([6]; K. pneumoniae ATCC 700603 resistant, MHB, 24 h 37°C, OD620, >90% inhibition, average of four independent experiments in duplicate, listed as dimeric): ≥ 27 µg/mL | MIC ([6]; K. pneumoniae ATCC 700603 resistant, value in parentheses, MHB, 24 h 37°C, OD620, >90% inhibition): ≥ 12,5 µM | concentration at which antibacterial activity was exhibited (dose-response profile) ([6]; K. pneumoniae resistant strain, Figure 3): ≤ 27 μg/mL and ≤ 12,5 μM | MIC ([7]; ATCC 33591, 24 h): 25 µM | MIC ([7]; S. aureus ATCC 33591 resistant, MHB, 24 h 37°C, OD620, >90% inhibition, average of four independent experiments in duplicate): 55 µg/mL | MIC ([7]; S. aureus ATCC 33591 resistant, MHB, 24 h 37°C, OD620, >90% inhibition, average of four independent experiments in duplicate, listed as dimeric): ≥ 55 µg/mL | MIC ([7]; S. aureus ATCC 33591 resistant, value in parentheses, MHB, 24 h 37°C, OD620, >90% inhibition): ≥ 25 µM | MIC ([8]; ATCC 25923, 24 h): 6.25 µM | MIC ([8]; S. aureus ATCC 25923 sensitive, MHB, 24 h 37°C, OD620, lowest concentration inhibiting growth >90%, average of four independent experiments in duplicate): 14 µg/mL | MIC ([8]; S. aureus ATCC 25923 sensitive, MHB, 24 h 37°C, OD620, lowest concentration inhibiting growth >90%, average of four independent experiments in duplicate, listed as dimeric): ≥ 14 µg/mL | MIC ([8]; S. aureus ATCC 25923 sensitive, value in parentheses, MHB, 24 h 37°C, OD620, >90% inhibition, average of four independent experiments in duplicate): ≥ 6.25 µM | concentration at which antibacterial activity was displayed (dose-response profile) ([8]; S. aureus sensitive strain, Figure 2): ≥ 14 μg/mL and ≥ 6.25 μM
